Laboratory results taken from patent US10745382B2 (BRISTOL-MYERS SQUIBB COMPANY, priority 2015, dated 2020).

Target: T1, PD-1/PD-L1 (Homo sapiens, UniProt Q9NZQ7)
T1 construct: made in house; host or cells: HEK293T
Assay: PD-1/PD-L1 Homogenous Time-Resolved Fluorescence (HTRF) binding assay
Conditions: PD-L1-His 10 nM, PD-1-Ig 20 nM; value given as range class; read-out: Range or IC50
In short: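 Binding was measured by HTRF in dPBS with 0.1% BSA and 0.05% Tween-20. Detection used europium cryptate anti-Ig (1 nM final) and APC anti-His (20 nM final) added over the binding reaction.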

T1 sequence (Q9NZQ7 with tags, fused parts or gaps): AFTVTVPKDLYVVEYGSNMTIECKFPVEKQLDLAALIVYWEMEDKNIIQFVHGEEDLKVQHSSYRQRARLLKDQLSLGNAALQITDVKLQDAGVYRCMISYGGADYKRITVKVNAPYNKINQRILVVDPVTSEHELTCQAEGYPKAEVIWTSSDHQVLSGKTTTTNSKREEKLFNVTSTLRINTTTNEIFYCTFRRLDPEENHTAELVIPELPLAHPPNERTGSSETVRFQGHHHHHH

Row | SMILES | IC50 [nM]
1 | CCC(CO)(CO)NCc1cc(Cl)c(OCc2cccc(-c3cccc(OCCCN4CCCC(CO)C4)c3C)c2C)cc1OCc1cncc(C#N)c1 (stereo not drawn) [Example 2283, 5-((4-chloro-2-(((1-hydroxy-2-(hydroxymethyl)butan-2-yl)amino)methyl)-5-((3′-(3-(3-(hydroxymethyl)piperidin-1-yl)propoxy)-2,2′-dimethyl-[1,1′-biphenyl]-3-yl)methoxy)phenoxy)methyl)nicotinonitrile] | 0.21 to 10
2 | Cc1cc(OCc2cccc(-c3cccc(OCCCN4CC[C@@H](O)C4)c3C)c2C)c(Cl)cc1CN1CCCC[C@H]1C(=O)O [Example 4523, (S)-1-(5-chloro-4-((3′-(3-((R)-3-hydroxypyrrolidin-1-yl)propoxy)-2,2′-dimethyl-[1,1′-biphenyl]-3-yl)methoxy)-2-methylbenzyl)piperidine-2-carboxylic Acid] | 0.21 to 10
3 | CNC(=O)c1cccc(-c2cccc(COc3cc(OCc4cncc(C#N)c4)c(CNC(C)(CO)CO)cc3Cl)c2C)c1C [Example 4016, 3′-((2-chloro-5-((5-cyanopyridin-3-yl)methoxy)-4-(((1,3-dihydroxy-2-methylpropan-2-yl)amino)methyl)phenoxy)methyl)-N,2,2′-trimethyl-[1,1′-biphenyl]-3-carboxamide] | 0.21 to 10
4 | CCOC(=O)C1(CO)CCN(CCCOc2cccc(-c3cccc(COc4cc(OCc5cncc(C#N)c5)c(CN5CCC(CO)(C(=O)OCC)C5)cc4Cl)c3C)c2Cl)C1 (stereo not drawn) [Example 1104, ethyl 1-(3-((2-chloro-3′-((2-chloro-5-((5-cyanopyridin-3-yl)methoxy)-4-((3-(ethoxycarbonyl)-3-(hydroxymethyl)pyrrolidin-1-yl)methyl)phenoxy)methyl)-2′-methyl-[1,1′-biphenyl]-3-yl)oxy)propyl)-3-(hydroxymethyl)pyrrolidine-3-carboxylate] | 10 to 100
5 | Cc1c(COc2cc(OCc3cncc(C#N)c3)c(CN3CCNC[C@H]3C(=O)O)cc2Cl)cccc1-c1cccc(C(=O)N2CCOCC2)c1C [Example 4060, (S)-1-(5-chloro-2-((5-cyanopyridin-3-yl)methoxy)-4-((2,2′-dimethyl-3′-(morpholine-4-carbonyl)-[1,1′-biphenyl]-3-yl)methoxy)benzyl)piperazine-2-carboxylic Acid] | 100 to 2000
6 | CCN(Cc1cc(Cl)c(OCc2cccc(-c3cccc(OCCCN4CC[C@@H](O)C4)c3Cl)c2C)cc1OCc1cncc(C#N)c1)[C@](C)(CO)C(=O)O [Example 2072, (R)-2-((5-chloro-4-((2′-chloro-3′-(3-((R)-3-hydroxypyrrolidin-1-yl)propoxy)-2-methyl-[1,1′-biphenyl]-3-yl)methoxy)-2-((5-cyanopyridin-3-yl)methoxy)benzyl)(ethyl)amino)-3-hydroxy-2-methylpropanoic Acid] | 0.21 to 10
7 | Cc1c(COc2cc(OCc3cncc(S(C)(=O)=O)c3)c(CN[C@H](CO)C(=O)O)cc2Cl)cccc1-c1cccc(OCCCN2CC[C@@H](O)C2)c1C [Example 1025, (R)-2-((5-chloro-4-((3′-(3-((R)-3-hydroxypyrrolidin-1-yl)propoxy)-2,2′-dimethyl-[1,1′-biphenyl]-3-yl)methoxy)-2-((5-(methylsulfonyl)pyridin-3-yl)methoxy)benzyl)amino)-3-hydroxypropanoic Acid] | 0.21 to 10
8 | Cc1c(COc2cc(OCc3cncc(C#N)c3)c(CN[C@H](CO)C(=O)O)cc2Cl)cccc1-c1cccc(OCC(=O)N2CC[C@H](O)C2)c1 [Example 1003, (R)-2-((5-chloro-2-((5-cyanopyridin-3-yl)methoxy)-4-((3′-(2-((S)-3-hydroxypyrrolidin-1-yl)-2-oxoethoxy)-2-methyl-[1,1′-biphenyl]-3-yl)methoxy)benzyl)amino)-3-hydroxypropanoic Acid] | 10 to 100
9 | Cc1c(CCCCN2CC[C@@H](O)C2)cccc1-c1cccc(COc2cc(OCc3cncc(C#N)c3)c(CN[C@@H](CN)C(=O)O)cc2Cl)c1C [Example 4069, (S)-3-amino-2-((5-chloro-2-((5-cyanopyridin-3-yl)methoxy)-4-((3′-(4-((R)-3-hydroxypyrrolidin-1-yl)butyl)-2,2′-dimethyl-[1,1′-biphenyl]-3-yl)methoxy)benzyl)amino)propanoic Acid] | 0.21 to 10
10 | CCNC(=O)c1cccc(-c2cccc(COc3cc(OCc4cncc(C#N)c4)c(CN4C[C@H](O)C[C@H]4C(=O)O)cc3Cl)c2C)c1C [Example 4008, (2S,4R)-1-(5-chloro-2-((5-cyanopyridin-3-yl)methoxy)-4-((3′-(ethylcarbamoyl)-2,2′-dimethyl-[1,1′-biphenyl]-3-yl)methoxy)benzyl)-4-hydroxypyrrolidine-2-carboxylic Acid] | 10 to 100
11 | Cc1c(COc2cc(OCc3cncc(C#N)c3)c(CN3CCN(C)C(=O)C3)cc2Cl)cccc1-c1cccc(OCCCN2CC[C@@H](O)C2)c1C [Example 2330, (R)-5-((4-chloro-5-((3′-(3-(3-hydroxypyrrolidin-1-yl)propoxy)-2,2′-dimethyl-[1,1′-biphenyl]-3-yl)methoxy)-2-((4-methyl-3-oxopiperazin-1-yl)methyl)phenoxy)methyl)nicotinonitrile] | 0.21 to 10
12 | Cc1c(COc2cc(OCc3cncc(C#N)c3)c(CNC(CO)(CO)CO)cc2Cl)cccc1-c1cccc(OCCCN2CC[C@@H](O)C2)c1C [Example 2285, (R)-5-((4-chloro-2-(((1,3-dihydroxy-2-(hydroxymethyl)propan-2-yl)amino)methyl)-5-((3′-(3-(3-hydroxypyrrolidin-1-yl)propoxy)-2,2′-dimethyl-[1,1′-biphenyl]-3-yl)methoxy)phenoxy)methyl)nicotinonitrile] | 0.21 to 10

The next lines start with the values.

Row | IC50 [nM] | SMILES
13 | 0.21 to 10 | Cc1c(COc2cc(OCc3cncc(C#N)c3)c(CN3CCCC[C@H]3C(=O)O)cc2Cl)cccc1-c1cccc(OCCCN2C3COCC2COC3)c1C [Example 3052, (S)-1-(4-((3′-(3-((1s,5s)-3,7-dioxa-9-azabicyclo[3.3.1]nonan-9-yl)propoxy)-2,2′-dimethyl-[1,1′-biphenyl]-3-yl)methoxy)-5-chloro-2-((5-cyanopyridin-3-yl)methoxy)benzyl)piperidine-2-carboxylic Acid]
14 | 0.21 to 10 | Cc1c(COc2cc(OCc3cncc(C#N)c3)c(CN3CCCC[C@H]3C(=O)O)cc2Cl)cccc1-c1cccc(OCCCN(CCO)Cc2ccccc2)c1C [Example 2236, (2S)-1-(4-((3′-(3-(benzyl(2-hydroxyethyl)amino)propoxy)-2,2′-dimethylbiphenyl-3-yl)methoxy)-5-chloro-2-((5-cyanopyridin-3-yl)methoxy)benzyl)piperidine-2-carboxylic Acid]
15 | 0.21 to 10 | Cc1c(COc2cc(OCc3cncc(C#N)c3)c(CN3CCCC[C@H]3C(=O)O)cc2Cl)cccc1-c1cccc(OCCCN(C)CCc2ccccc2)c1C [Example 2218, (2S)-1-(5-chloro-2-((5-cyanopyridin-3-yl)methoxy)-4-((2,2′-dimethyl-3′-(3-(methyl(phenethyl)amino)propoxy)biphenyl-3-yl)methoxy)benzyl)piperidine-2-carboxylic Acid]
16 | 0.21 to 10 | Cc1c(COc2cc(OCc3cncc(C#N)c3)c(CN3CCCC[C@H]3C(=O)O)cc2Cl)cccc1-c1cccc(OCCCN2CCCC(C(N)=O)C2)c1C (stereo partly drawn) [Example 2207, (2S)-1-(4-((3′-(3-(3-carbamoylpiperidin-1-yl)propoxy)-2,2′-dimethylbiphenyl-3-yl)methoxy)-5-chloro-2-((5-cyanopyridin-3-yl)methoxy)benzyl)piperidine-2-carboxylic Acid]
17 | 0.21 to 10 | CCOC(=O)C1(CO)CCN(CCCOc2cccc(-c3cccc(COc4cc(OCc5cncc(C#N)c5)c(CN5CCCC[C@H]5C(=O)O)cc4Cl)c3C)c2Cl)C1 (stereo partly drawn) [Example 1101, (2S)-1-(5-chloro-4-((2′-chloro-3′-(3-(3-(ethoxycarbonyl)-3-(hydroxymethyl)pyrrolidin-1-yl)propoxy)-2-methyl-[1,1′-biphenyl]-3-yl)methoxy)-2-((5-cyanopyridin-3-yl)methoxy)benzyl)piperidine-2-carboxylic Acid]
18 | 0.21 to 10 | Cc1c(COc2cc(OCc3cncc(S(C)(=O)=O)c3)c(CN3CCCC[C@H]3C(=O)O)cc2Cl)cccc1-c1cccc(OCCCN2CCC(O)(CC(=O)O)C2)c1C (mixture of isomers) [Example 1516, (2S)-1-(4-((3′-(3-(3-(carboxymethyl)-3-hydroxypyrrolidin-1-yl)propoxy)-2,2′-dimethyl-[1,1′-biphenyl]-3-yl)methoxy)-5-chloro-2-((5-(methylsulfonyl)pyridin-3-yl)methoxy)benzyl)piperidine-2-carboxylic acid]
19 | 0.21 to 10 | Cc1c(COc2cc(OCc3cncc(C#N)c3)c(CN3CCCC[C@H]3C(=O)O)cc2Cl)cccc1-c1cccc(OCCCNCCc2ccncc2)c1C [Example 2210, (2S)-1-(5-chloro-2-((5-cyanopyridin-3-yl)methoxy)-4-((2,2′-dimethyl-3′-(3-(2-(pyridin-4-yl)ethylamino)propoxy)biphenyl-3-yl)methoxy)benzyl)piperidine-2-carboxylic Acid]
20 | 0.21 to 10 | Cc1c(COc2cc(OCc3cncc(C#N)c3)c(CN3CCCC[C@H]3C(=O)O)cc2Cl)cccc1-c1cccc(OCCCNC[C@H](O)c2ccccc2)c1C [Example 2220, (2S)-1-(5-chloro-2-((5-cyanopyridin-3-yl)methoxy)-4-((3′-(3-((R)-2-hydroxy-2-phenylethylamino)propoxy)-2,2′-dimethylbiphenyl-3-yl)methoxy)benzyl)piperidine-2-carboxylic Acid]
21 | 0.21 to 10 | Cc1c(COc2cc(OCc3cncc(C#N)c3)c(CNC(CO)(CO)CO)cc2Cl)cccc1-c1cccc(OCCCNC[C@H](O)CO)c1C [Example 2282, (S)-5-((4-chloro-2-(((1,3-dihydroxy-2-(hydroxymethyl)propan-2-yl)amino)methyl)-5-((3′-(3-((2,3-dihydroxypropyl)amino)propoxy)-2,2′-dimethyl-[1,1′-biphenyl]-3-yl)methoxy)phenoxy)methyl)nicotinonitrile]
